Key:
[1] = target: T1, SPL (Mus musculus, UniProt Q8R0X7); experiment: SPL activity in thymic tissue after FTY720 administration in vivo; design: species or system FVB mice; details: for SPL enzyme inhibition in tissue homogenates: animals treated with FTY720 for 24 hours
T1 construct: from tissue; host or cells: thymus of FVB mice
T1 sequence (Q8R0X7 1-568): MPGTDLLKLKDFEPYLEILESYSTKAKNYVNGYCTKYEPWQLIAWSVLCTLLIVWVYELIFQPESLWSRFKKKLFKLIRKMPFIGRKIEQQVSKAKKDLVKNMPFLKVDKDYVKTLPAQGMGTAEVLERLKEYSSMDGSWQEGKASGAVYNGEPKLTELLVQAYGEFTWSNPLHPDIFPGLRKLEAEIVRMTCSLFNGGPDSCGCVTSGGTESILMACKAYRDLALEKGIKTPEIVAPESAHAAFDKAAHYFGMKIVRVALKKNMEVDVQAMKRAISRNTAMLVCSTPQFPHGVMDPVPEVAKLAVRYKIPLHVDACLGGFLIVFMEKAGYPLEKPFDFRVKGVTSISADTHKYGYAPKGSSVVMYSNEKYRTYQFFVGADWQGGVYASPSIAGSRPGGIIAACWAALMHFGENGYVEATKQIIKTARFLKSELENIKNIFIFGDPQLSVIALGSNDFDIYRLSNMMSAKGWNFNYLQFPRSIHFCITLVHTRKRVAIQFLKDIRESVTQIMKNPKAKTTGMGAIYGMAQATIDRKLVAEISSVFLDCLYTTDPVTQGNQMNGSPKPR
Description: One mg/kg FTY720 was administered by peritoneal injection to FVB mice at time zero. Mice were euthanized at the indicated times, and SPL activity in thymic tissue was determined.
(§1) Drug treatments and leukocyte/lymphocyte counts: Four-week old FVB or C3H mice were obtained from Charles River Laboratories (Wilmington, Mass.). Animals were maintained in a pathogen-free facility in microisolator cages. Mice were anaesthetized with isoflurane inhalation, and a single dose of FTY720 (at 1 or 3 mg/kg) or GT11 (at 1, 10 or 100 mg/kg) in sterile water was injected intraperitoneally at time zero. Blood counts were determined by Coulter counter (Coulter Instruments, Hialeah, Fla.) and by manual differential counting. Mice were euthanized by CO2 inhalation at various time points post-injection, followed by tissue harvest. All animal studies were performed in accordance with approved CHORI IACUC protocols.
SPL enzyme assay: Tissues were homogenized by sonication in 9 volumes of ice-cold homogenization buffer (5 mM MOPS pH 7.5, 1 mM DTT, 1 mM EDTA, 0.25 M sucrose, and 5 micrograms/ml each chymostatin, leupeptin, pepstatin A and antipain). SPL assays were conducted using 50 micrograms protein per assay and radioactive [4,5 ^3H]DHS1P substrate, as described previously (Reiss et al., (2004) J Biol Chem 279, 1281-1290). For in vitro FTY720 and FTY720-P experiments, drug was incubated with whole cell extracts prepared from HEK293 cells infected with an adenoviral vector expressing human SPL. These extracts contained approximately 200 picomoles/mg protein/minute SPL activity. Drug was incubated with extracts for 30 minutes, followed by addition of extracts to reaction buffer and substrate to initiate the reaction.
(§2) Inhibition of SPL by FTY720 in vivo—The effect on SPL enzyme activity of FTY720 administration was tested. Four-week old female FVB mice were given 1 mg/kg FTY720 by intraperitoneal injection, and tissue SPL activity in thymus was assessed over time. […] SPL inhibition occurred concomitantly with lymphopenia, and was consistent with the timing of lymphopenia reported previously (Chiba et al., (1998) J Immunol 160, 5037-5044) (Table 1).
To address whether the inhibition of SPL activity in homogenates of tissues isolated from FTY720 treated animals was reversible, tissue SPL activity was measured in the presence of increasing amounts of non-radiolabeled DHS1P substrate.

[2] = single dose administration; cited from earlier work
[3] = system: Lymphocytes; experiment: Lymphocyte counts after FTY720 treatment; assay type: in vivo, mice
Description: as §1, §2

[4] = system: SPL protein expression; experiment: SPL protein expression in thymic extracts by immunoblotting; assay type: in vivo; details: mice treated for 24 hours
Description: (A) SPL gene expression. HEK293 cells were co-transfected with a human SPL luciferase reporter construct and the sea pansy luciferase reporter as a control for transfection efficiency. Twenty-four hours after transfection, cells were treated with 0.3 μM FTY720, 3.0 μM FTY720 or vehicle and incubated for another 24 hours at 37° C. Luciferase activity was then determined as a measure of expression, as described in Experimental Methods. Values shown are luciferase activity normalized to sea pansy luciferase; (B) SPL protein expression. Thymic extracts from control mice (time 0) and mice treated with FTY720 for 24 hours were evaluated for SPL protein expression by immunoblotting. Actin was used as a loading control.
SPL expression: To evaluate the effect of FTY720 and FTY720-P on SPL gene expression, HEK293 cells were treated for 30 minutes with 3 μM of either drug, followed by transfection with pSPL-BamHI, a human SPL-luciferase reporter construct. After 48 hours, reporter expression was determined by luciferase activity as described (Oskouian et al., (2005) J Biol Chem 280, 18403-18410)). Western blotting of mouse tissue extracts was performed using a 1:2000 dilution of polyclonal sera raised against the murine SPL C-terminal peptide: (NH2)—V-T-Q-G-N-Q-M-N-G-S—P—K—P—R—(COOH). [SEQ ID NO:11] […]

[5] = 1 mg/kg FTY720 intraperitoneal, FVB mice, thymus

earliest time at which inhibition of SPL was noted [1, 5]: 12 h | time by which SPL inhibition began to reverse [1, 5]: ≤ 48 h | SPL enzyme inhibition in tissue homogenates ([1]; 10 nmol substrate (standard assay conditions)): 21% | SPL enzyme inhibition in tissue homogenates ([1]; 40 nmol unlabeled substrate): 25% | SPL enzyme inhibition in tissue homogenates ([1]; 2-fold increase in unlabeled DHS1P substrate): 14% | inhibition at 1 mg/kg ([1]; mouse, ip, 1 mg/kg FTY720 intraperitoneal, FVB mice, thymus, at 36 hours, read-out: peak inhibition of SPL activity): ~40%
Compound: CCCCCCCCc1ccc(CCC(N)(CO)CO)cc1 [FTY720]
elimination half-life [2]: long | Lymphocytes ([3]; 24 hours after FTY720): 2.2 1000/μL | Lymphocytes ([3]; 48 hours after FTY720): 3.2 1000/μL | Lymphocytes ([3]; 72 hours after FTY720): 2.0 1000/μL | SPL protein expression (immunoblotting) [4]: not affected
